Source: patent publication US20230293599A1, “BACTERIAL COMPOSITIONS WITH ANTI-INFLAMMATORY ACTIVITY” (Universiteit Gent, priority 2020, published 2023)
Read-outs that look alike come from different tables or passages of the source. Residues, ends and D or L forms follow the SMILES beside them.

How the values were obtained:
R. gilardii = assay: Biolog Phenotype Microarray PM1-2 growth on carbon sources; assay type: cell-based, Roseomonas gilardii
Procedure: (§1) Using Phenotype Microarray (PM) panels (Biolog), the influence of 190 carbon sources on the growth of the potential probiotic species R. mucilaginosa, R. dentocariosa, R. gilardii, G. haemolysans, and common respiratory pathogens P. aeruginosa, and S. aureus was determined. PM1 and PM2 panels (Biolog) were inoculated according to the manufacturer's instructions. Growth curves were generated for 35 hours by measuring the absorbance at 590 nm using an EnVision (Perkin Elmer) plate reader.

S. aureus = assay type: cell-based, Staphylococcus aureus
Procedure: as §1

P. aeruginosa = assay: Biolog Phenotype Microarray PM1-2 growth on carbon sources; assay type: cell-based, Pseudomonas aeruginosa
Procedure: as §1

R. dentocariosa = assay: as above; assay type: cell-based, Rothia dentocariosa
Procedure: as §1

R. mucilaginosa = assay: as above; assay type: cell-based, Rothia mucilaginosa; conditions: 35 hours, absorbance 590 nm, n = 1; cells without values AUC < 50
Procedure: as §1

[1] = 35 hours, absorbance 590 nm, n = 1, cells without values AUC < 50

SMILES	AUC of growth curve, S. aureus (S. aureus)	AUC of growth curve, P. aeruginosa (P. aeruginosa; [1])	also measured
O=C(O)CC(O)C(=O)O (racemic) [D,L-Malic Acid]	696.0	852.7	AUC of growth curve, R. gilardii (R. gilardii; [1]): 169.8
OC[C@H]1O[C@@H](Oc2ccc(O)cc2)[C@H](O)[C@@H](O)[C@@H]1O [Arbutin]	282.2		AUC of growth curve, R. dentocariosa (R. dentocariosa; [1]): 55.2
O=C(O)CC(Br)C(=O)O (stereo not shown) [Bromo Succinic Acid]	430.7	102.6	AUC of growth curve, R. gilardii (R. gilardii; [1]): 67.3; AUC of growth curve, R. dentocariosa (R. dentocariosa; [1]): 808.4
O=C(O)CC(O)(CC(=O)O)C(=O)O [Citric Acid]	169.0	846.5	AUC of growth curve, R. gilardii (R. gilardii; [1]): 156.2
C[C@@H](O)[C@H](O)[C@H](O)[C@@H](O)C=O [D-Fucose]	138.3	91.3	AUC of growth curve, R. gilardii (R. gilardii; [1]): 71.4; AUC of growth curve, R. dentocariosa (R. dentocariosa; [1]): 119.9
O=C[C@H](O)[C@@H](O)[C@@H](O)[C@H](O)C(=O)O [D-Galacturonic Acid]	165.1	598.2	AUC of growth curve, R. dentocariosa (R. dentocariosa; [1]): 57.0
O=C(O)[C@H](O)[C@@H](O)[C@H](O)[C@H](O)CO [D-Gluconic Acid]	321.0		AUC of growth curve, P. aeruginosa (P. aeruginosa): 617.8
O=C[C@H](O)[C@@H](O)[C@H](O)[C@H](O)COP(=O)(O)O [D-Glucose-6-Phosphate]	168.0	399.6	
O=C[C@H](O)[C@@H](O)[C@H](O)[C@H](O)C(=O)O [D-Glucuronic Acid]	292.7	543.2	
COC(=O)[C@@H](C)O [D-Lactic Acid Methyl Ester]	517.2	1081.7	
OC[C@@H](O)[C@@H](O)[C@H](O)[C@H](O)CO [D-Mannitol]	884.6	420.0	
OC[C@H]1O[C@@](CO)(O[C@H]2O[C@H](CO)[C@@H](O)[C@H](O)[C@H]2O)[C@@H](O[C@H]2O[C@H](CO)[C@@H](O)[C@H](O)[C@H]2O)[C@@H]1O [D-Melezitose]	969.2		AUC of growth curve, R. dentocariosa (R. dentocariosa; [1]): 57.2
OC[C@H]1O[C@H](OCC2O[C@@H](O)[C@H](O)[C@@H](O)[C@@H]2O)[C@H](O)[C@@H](O)[C@H]1O (stereo partly drawn) [D-Melibiose]	220.2		AUC of growth curve, R. gilardii (R. gilardii; [1]): 86.9; AUC of growth curve, R. dentocariosa (R. dentocariosa; [1]): 249.8
O=C(O)[C@@H](O)[C@@H](O)[C@H](O)[C@@H](O)C(=O)O [D-Saccharic Acid]	57.3	108.8	
OC[C@@H](O)[C@@H](O)[C@H](O)[C@@H](O)CO [D-Sorbitol]	412.2	129.8	
O=C(CO)[C@@H](O)[C@@H](O)[C@H](O)CO [D-Tagatose]	633.2		AUC of growth curve, R. gilardii (R. gilardii): 75.2; AUC of growth curve, R. dentocariosa (R. dentocariosa): 117.7; AUC of growth curve, P. aeruginosa (P. aeruginosa): 574.0
O=C(O)/C=C/C(=O)O [Fumaric Acid]	687.9	1085.5	AUC of growth curve, R. dentocariosa (R. dentocariosa; [1]): 202.9
NCC(=O)O [Glycine]	743.1	101.6	
NCC(=O)N[C@@H](CC(=O)O)C(=O)O [Glycyl-L-Aspartic Acid] (H-Gly-Asp-OH)	840.3		AUC of growth curve, P. aeruginosa (P. aeruginosa): 538.0
NCC(=O)N1CCC[C@H]1C(=O)O [Glycyl-L-Proline] (H-Gly-Pro-OH)	292.4		AUC of growth curve, R. dentocariosa (R. dentocariosa): 72.5; AUC of growth curve, P. aeruginosa (P. aeruginosa): 387.4
OC[C@H]1O[C@@H](n2cnc3c(O)ncnc32)[C@H](O)[C@@H]1O [Inosine]	1075.0	141.0	
C[C@H](N)C(=O)O [L-Alanine]	564.0	775.3	
N=C(N)NCCC[C@H](N)C(=O)O [L-Arginine]	816.4		AUC of growth curve, P. aeruginosa (P. aeruginosa): 285.4

SMILES	AUC of growth curve, S. aureus (S. aureus)	AUC of growth curve, P. aeruginosa (P. aeruginosa; [1])	also measured
NC(=O)C[C@H](N)C(=O)O [L-Asparagine]	684.0	1032.0	
N[C@@H](CC(=O)O)C(=O)O [L-Aspartic Acid]	464.1	730.7	
O=C1O[C@H]([C@@H](O)CO)[C@@H](O)[C@@H]1O [L-Galactonic Acid γ-Lactone]	176.4		AUC of growth curve, R. gilardii (R. gilardii): 212.2; AUC of growth curve, P. aeruginosa (P. aeruginosa): 549.8
N[C@@H](CCC(=O)O)C(=O)O [L-Glutamic Acid]		788.3	AUC of growth curve, S. aureus (S. aureus; [1]): 644.7
NC(=O)CC[C@H](N)C(=O)O [L-Glutamine]	697.1	987.8	
N[C@@H](Cc1c[nH]cn1)C(=O)O [L-Histidine]	467.3	773.2	
N[C@@H](CCO)C(=O)O [L-Homoserine]	194.1	82.5	
CC[C@H](C)[C@H](N)C(=O)O [L-Isoleucine]	113.8	86.2	
CC(C)C[C@H](N)C(=O)O [L-Leucine]	231.5	125.5	
CSCC[C@H](N)C(=O)O [L-Methionine]	254.7	52.6	
O=C1CC[C@@H](C(=O)O)N1 [L-Pyroglutamic Acid]	427.9	1438.7	
O=C(CO)[C@@H](O)[C@H](O)[C@@H](O)CO [L-Sorbose]	458.7		AUC of growth curve, R. dentocariosa (R. dentocariosa): 52.1; AUC of growth curve, P. aeruginosa (P. aeruginosa): 94.3
O=C(O)CC(=O)O [Malonic Acid]	470.9	234.7	
O=C(O)[C@@H](O)[C@H](O)[C@H](O)[C@@H](O)C(=O)O [Mucic Acid]	162.5		AUC of growth curve, R. mucilaginosa (R. mucilaginosa): 53.4
CC(=O)N[C@@H](CCC(=O)O)C(=O)O [N-Acetyl-L-Glutamic Acid]	184.1	272.5	
O=C(O)C(=O)C(C(=O)O)C(O)C(=O)O (stereo not shown) [Oxalomalic Acid]	691.0		AUC of growth curve, R. gilardii (R. gilardii): 219.2; growth of R. gilardii on the carbon source (in words) (R. gilardii): enabled growth; AUC of growth curve, R. dentocariosa (R. dentocariosa): 169.4; growth of R. dentocariosa on the carbon source (in words) (R. dentocariosa): enabled growth; growth of P. aeruginosa on the carbon source (in words) (P. aeruginosa): did not support growth
CCC(=O)O [Propionic Acid]	235.6	152.1	AUC of growth curve, R. gilardii (R. gilardii; [1]): 58.6
NCCCCN [Putrescine]	274.2	656.8	
CCC(C)N (stereo not shown) [Sec-Butylamine]			AUC of growth curve, R. mucilaginosa (R. mucilaginosa): 67.6
NC(=O)CCC(=O)O [Succinamic Acid]	490.3	53.6	
O=C(O)CCC(=O)O [Succinic Acid]	626.1	348.4	AUC of growth curve, R. gilardii (R. gilardii; [1]): 125.7; AUC of growth curve, R. dentocariosa (R. dentocariosa; [1]): 241.8
O=C(O)CC(CC(=O)O)C(=O)O [Tricarballylic Acid]	177.0	510.7	
COC1OC(CO)C(O)C(O)C1O [α-Methyl-D-Galactoside]	229.9		AUC of growth curve, R. gilardii (R. gilardii; [1]): 73.3
